Assay results: patent US11213509B2, “Compositions and methods for treating traumatic brain injury” (Ischemix, LLC, priority 2017, dated 2022)

What was measured:
[1] = tested on: lipid peroxidation (4-HNE); assay: Lipid peroxidation by 4-hydroxynonenal (4-HNE) Western blot, focal TBI model in piglets; format: in vivo; details: cortical penumbra, ipsilateral; vs placebo, p<0.001
Procedure: (§1) Study Design: A blinded, placebo controlled proof of concept trial of CMX-2043 was conducted in four-week-old piglets (8-10 kg). […] Sixteen piglets (n=16) were designated into three cohorts: 1) Controlled cortical impact (CCI) at the rostral gyrus treated with a bolus of CMX-2043 (n=5), 2) CCI injured animals treated with placebo (n=5) and 3) sham animals (n=6). CMX-2043 treated animals received an intravenous loading bolus of CMX-2043 (13.4 mg/kg) 1 hour post-TBI and a 4.5 mg/kg bolus at 13 hours post-TBI. Subjects were intubated, ventilated and anesthesia maintained on isoflurane (1.0%). Buprenorphine (0.02 mg/kg IM) was administered for analgesia immediately following intubation. Monitors recorded oxygen saturation, heart rate, respiration rate, rectal temperature, and end tidal CO2. […] All piglets were sacrificed between 24-25 hours post-TBI.
Samples from the same ipsilateral injured region analyzed for mtROS were analyzed for oxidative damage by measuring 4-HNE as an assessment of lipid peroxidation by Western Blot analysis (EMD Millipore), normalized by GAPDH (EMD Millipore), and compared to placebo and shams.

[2] = tested on: mitochondrial bioenergetics; assay: Mitochondrial respiration (respiratory control ratio) 24 hours post-CCI, focal TBI model in piglets; format: in vivo
Procedure: as §1
Mitochondrial Respiration and ROS Production: Twenty four hours post-CCI the ipsilateral penumbra and mirrored contralateral cortex were harvested. The rate of oxygen consumption was recorded via high-resolution Oroboros Oxygraph-2k™ with a specific Substrate-Uncouple-Inhibitor-Titration Protocol (SUIT). […] Maximal reserve capacity of the electron transfer system (ETSCI+CII) was measured by titrating the protonophore carbonyl cyanide p-(trifluoro-methoxy) phenylhydrazone (FCCP). […]

SMILES: CC(NC(=O)C(CCC(=O)O)NC(=O)CCCCC1CCSS1)C(=O)O [CMX-2043, N—(R)-lipoyl-glutamylalanine]
- Lipid peroxidation (4-HNE) [1]: significant reduction in lipid peroxidation
- Respiratory control ratio (RCR; OXPHOS CI+CII/LEAK CI+CII) ([2]; contralateral cortex, P=0.09 vs placebo): 11.05±1.71
- Respiratory control ratio (RCR; OXPHOS CI+CII/LEAK CI+CII) ([2]; ipsilateral cortex, i.v. 13.4 mg/kg at 1 hour and 4.5 mg/kg at 13 hours post-TBI, p<0.05 vs placebo): 11.61±2.28
